In patent US8148100B2, “Mina53 assays” (ISIS Innovation Limited, priority 2005, dated 2012):

What was measured:
[1] = target: T1, Mina53(A26-V465) (Homo sapiens, UniProt Q8IUF8, A386T); assay: [14C] labelled 2-OG decarboxylation assay (uncoupled 2-OG turnover, 14CO2 release); format: biochemical; conditions: for inhibition of uncoupled 2-OG turnover by small molecules (in words): final concentration of 1 mM; for 2OG turnover: truncated Mina53 A26-V465 with Fe(II) and ascorbate, 16 nm 2-OG initially present, 37° C., 20 minutes
T1 construct: A N-terminal truncation of Mina53 A26-V465 cloned into pNIC28-Bsa4 was supplied by the Structural Genomics Consortium Oxford; His-tag (polyhistidine, TEV-cleavable, from pNIC28-Bsa4) (N, cleaved yes); made in house; host or cells: E. coli BL21(DE3)
T1 sequence (Q8IUF8 26-465 A386T): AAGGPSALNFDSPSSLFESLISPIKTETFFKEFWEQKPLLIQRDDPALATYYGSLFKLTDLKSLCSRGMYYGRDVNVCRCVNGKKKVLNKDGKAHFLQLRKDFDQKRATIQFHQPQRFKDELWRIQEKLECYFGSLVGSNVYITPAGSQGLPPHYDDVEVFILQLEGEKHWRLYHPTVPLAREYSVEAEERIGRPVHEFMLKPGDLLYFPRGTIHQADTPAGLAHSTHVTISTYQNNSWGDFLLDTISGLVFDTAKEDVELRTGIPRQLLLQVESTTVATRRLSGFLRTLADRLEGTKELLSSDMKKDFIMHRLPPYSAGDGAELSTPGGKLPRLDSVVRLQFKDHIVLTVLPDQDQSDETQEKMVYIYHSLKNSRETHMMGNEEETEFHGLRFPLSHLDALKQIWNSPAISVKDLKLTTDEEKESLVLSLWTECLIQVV
Procedure: Once purified full-length His-Mina53 had been obtained it was tested for 2-OG oxygenase activity. A standard assay for this family of enzymes involves the use of [^14C] labelled 2-OG co-substrate. Upon reaction, the ^14C label is released as 14CO2 gas (old FIG. 2).
The ^14CO2 gas is then trapped using a strong base and quantified by liquid scintillation. The level of uncoupled turnover of 2-OG oxygenases can be increased by the use of a reducing agent, e.g. ascorbate. Many other assays for 2-OG oxygenases are well known, e.g. those based on oxygen consumption, succinate production or oxidation of the “prime substrate” (McNeill et al (2005) Anal. Biochem. 336, 125-31; Sabourin & Bieber (1982) J. Biol. Chem. 257, 7460-7; and Cunliffe et al. (1986) Biochem. J. 240, 617-9).
As noted above, many of the enzymes in the family catalyse the decarboxylation of 2-OG in the absence of a suitable prime substrate, albeit at a reduced rate. This activity is sometimes termed as uncoupled turnover. The protocol used for the 2-OG assay decarboxylation is based on the method used to measure [^14CO2] release by α-ketoisocaproate oxygenase (Sabourin & Bieber (1982) J. Biol. Chem. 257, 7460-7). Standard assay conditions consisted of a total volume of 100 μl, 50 mM Tris-HCl pH 7.5, 4 mM ascorbate, 160 μM 2OG (5% 1-[^14C]), 80 μM FeSO4.6H2O, 0.48 mg·ml^−1 catalase, 10 μM Mina53. Four stocks were made: (a) Mina53 (b) Fe(II) (c) ascorbate and, (d) all other reagents. Assays were started by mixing components (a) to (d). A tube containing 200 μl hyamine hydroxide was added and the vial sealed. The assays were incubated at 37° C. for 20 minutes then quenched with methanol (200 μl). Reaction tubes were then left on ice for 30 mins to collect [^14CO2] gas, before the hyamine hydroxide was removed and treated with scintillant solution for counting (Beckman, LS6500). Assays were performed in triplicate unless otherwise stated. When potential small molecule inhibitors were added, they were mixed to stock (d) to a final concentration of 1 mM in Tris 50 mM, pH 7.9 buffer. To investigate inhibition of Mina53 by metals other than Fe(II), NiCl2 and ZnCl2 were added separately to the assay mixture to a final concentration of 80 μM.
Using this [^14C] labelled 2-OG assay (16 nm of 2-OG was initially present in the assay mixture), the level of uncoupled turnover for Mina53 was measured under standard catalytic conditions (16 nm of 2-OG was initially present in the assay mixture), in the absence of Fe(II), in the absence of ascorbate and in the presence on N-oxalylglycine (NOG) a ubiquitous inhibitor for the 2-OG dependent non-haem Fe(II) oxygenases^16.

[2] = target: T1, Mina53(A26-V465); assay: as above; format: biochemical; conditions: His-Mina53, absence of prime substrate
[3] = final assay concentration of 80 μM

Compound	inhibition of uncoupled 2-OG turnover by small molecules (in words) [1]	2OG turnover ([1]; small molecule added at 1 mM) [nm]	decarboxylation of 2-OG by His-Mina53 in the presence of inhibitor (in words) [2]	relative inhibitory potency, Ni versus Zn (in words) [1, 3]	inhibition of Mina53 mediated oxidation of 2OG by metals other than Fe(II) (in words) [1, 3]	2OG turnover ([1]; metal salt added at 80 μM) [nm]
O=C(O)CNC(=O)c1nc(Cl)c2ccccc2c1O [BB231]	did not significantly reduce it	3.18 ± 0.03	–	–	–	–
[Cl][Ni][Cl] [NiCl2]	–	–	–	–	inhibit 2OG turnover	2 ± 0.23
fumarate	inhibit uncoupled 2-OG turnover	0.58 ± 0.09	–	–	–	–

Continued, in another order:

inhibition of uncoupled 2-OG turnover by small molecules (in words) [1]	2OG turnover ([1]; small molecule added at 1 mM) [nm]	decarboxylation of 2-OG by His-Mina53 in the presence of inhibitor (in words) [2]	relative inhibitory potency, Ni versus Zn (in words) [1, 3]	Compound	inhibition of Mina53 mediated oxidation of 2OG by metals other than Fe(II) (in words) [1, 3]	2OG turnover ([1]; metal salt added at 80 μM) [nm]
did not significantly reduce it	3.86 ± 0.05	–	–	O=C(O)C(=O)NC(Cc1ccccc1)C(=O)O [NOFD, N-oxalyl D-phenylalaninie]	–	–
inhibit uncoupled 2-OG turnover	0.17 ± 0.12	–	–	CCC(=O)C1C(=O)CC(C(=O)O)CC1=O (stereo not shown) [Prohexadione, prohexadione]	–	–
inhibit uncoupled 2-OG turnover	0.47 ± 0.12	inhibited	–	O=C(O)CNC(=O)C(=O)O [NOG, N-oxalylglycine]	–	–
–	–	–	more potent inhibitor	[Cl-].[Cl-].[Zn+2] [ZnCl2]	inhibit 2OG turnover	0.93 ± 0.17
